Source: patent publication US4454140A, “Nasal administration of dextromethorphan” (Hoffmann-La Roche Inc., priority 1982, dated 1984)
Where “and” joins values, the source holds several entries; their conditions need not be identical. Identical values can stand only once. Like-named read-outs stand apart in the source and are kept apart here.

Assay: bioavailability of dextromethorphan after nasal, oral and intravenous administration (plasma levels, spectrofluorophotometric)
Format: in vivo, female beagle dogs
Settings: for AUC(0-t) at 2 h / concentration at 1 min / concentration at 0.05 h / concentration at 0.1 h / concentration at 0.2 h / concentration at 20 min / concentration at 35 min / concentration at 55 min / concentration at 80 min / concentration at 2 h / bioavailability at 2 h / concentration at 3 h: dog, plasma, 15 mg; for AUC(0-t) at 2 h / AUC 0-120 min., Individual AUC: 15 mg/dog; for concentration at 1 min / concentration at 0.05 h / concentration at 0.1 h / concentration at 0.2 h / concentration at 20 min / concentration at 35 min / concentration at 55 min / concentration at 80 min / concentration at 2 h / concentration at 3 h / Plasma Concentration: HBr salt 15 mg/dog; for bioavailability at 2 h: relative to intravenous, 0-120 min
Method: The following study was undertaken to determine the bioavailability of dextromethorphan from nasal solution in comparison with the bioavailability of the drug when administered orally and intravenously.
Three female beagle dogs weighing about 10 kg each were used for the study without fasting. For nasal administration, the dogs were anaesthetized with an intravenous injection of 30 mg/kg of sodium pentobarbital, and 0.5 ml of a warm saline solution containing dextromethorphan (30 mg/ml) was then administered to the nasal cavity through the nostrils with a syringe. For oral administration, the dogs were not anaesthetized and 10 ml of a saline solution containing dextromethorphan hydrobromide (1.5 mg/ml) was administered via a stomach tube. For intravenous administration, the dogs were anaesthetized as noted above, and one ml of a saline solution containing dextromethorphan hydrobromide (15 mg/ml) was injected through the cubital vein.
After nasal, oral, and intravenous administration, blood was sampled from the cubital vein periodically. The blood sample, was centrifuged and 2.5 ml of plasma were analyzed. Plasma levels of dextromethorphan were determined spectrofluorophotometrically by a modification of the method of Ramachander, et al., J. Pharm. Sci., 66, 1047 (1977). Specifically, plasma was transferred into a glass tube, 0.5 ml of a saturated solution of sodium carbonate and 10 ml of ethyl acetate were added, and the contents shaken well. After centrifuging, an aliquot (8 ml) of the supernate was transferred into a glass tube containing 1.5 ml of 1.0N HCl, and was extracted into the acid layer after mixing well and centrifuging. The fluorescence of the acid layer was determined by a spectrofluorophotometer, Aminco-Bowman Ratio II, American Instrument Co. The excitation and emission wave lengths were 278 nm and 306 nm, respectively. Recovery of known amounts of dextromethorphan spiked with dog plasma was 50% of the added concentration. For calculating the drug plasma level, the above correction factor was taken into consideration.
Table I reports the plasma concentration of dextromethorphan after nasal, intravenous, and oral administration of 15 mg/dog of dextromethorphan hydrobromide salt.

Q: What does the source list for COc1ccc2c(c1)[C@]13CCCC[C@@H]1[C@H](C2)N(C)CC3 [dextromethorphan, d-3-methoxy-N-methylmorphinan]?
A: AUC(0-t) at 2 h (nasal, average of three dogs, read-out: AUC 0-120 min., Average ± S.E. (converted)): 472 ng·h/mL; concentration at 1 min (nasal, dog #1, 1 min): 72.1 ng/mL; concentration at 0.05 h (nasal, dog #1, 3 min): 323 ng/mL; concentration at 0.1 h (nasal, dog #1, 6 min): 618 ng/mL; concentration at 0.2 h (nasal, dog #1, 12 min): 684 ng/mL; concentration at 20 min (nasal, dog #1, 20 min): 503 ng/mL; concentration at 35 min (nasal, dog #1, 35 min): 276 ng/mL; concentration at 55 min (nasal, dog #1, 55 min): 240 ng/mL; concentration at 80 min (nasal, dog #1, 80 min): 201 ng/mL; concentration at 2 h (nasal, dog #1, 120 min): 154 ng/mL; concentration at 1 min (nasal, dog #2, 1 min): 89.1 ng/mL; concentration at 0.05 h (nasal, dog #2, 3 min): 793 ng/mL; concentration at 0.1 h (nasal, dog #2, 6 min): 733 ng/mL; concentration at 0.2 h (nasal, dog #2, 12 min): 888 ng/mL; concentration at 20 min (nasal, dog #2, 20 min): 260 ng/mL; concentration at 35 min (nasal, dog #2, 35 min): 201 ng/mL; concentration at 55 min (nasal, dog #2, 55 min): 170 ng/mL; concentration at 80 min (nasal, dog #2, 80 min): 183 ng/mL; concentration at 2 h (nasal, dog #2, 120 min): 141 ng/mL; concentration at 1 min (nasal, dog #3, 1 min): 84.2 ng/mL; concentration at 0.05 h (nasal, dog #3, 3 min): 428 ng/mL; concentration at 0.1 h (nasal, dog #3, 6 min): 493 ng/mL; concentration at 0.2 h (nasal, dog #3, 12 min): 385 ng/mL; concentration at 20 min (nasal, dog #3, 20 min): 263 ng/mL; concentration at 35 min (nasal, dog #3, 35 min): 165 ng/mL; concentration at 55 min (nasal, dog #3, 55 min): 129 ng/mL; concentration at 80 min (nasal, dog #3, 80 min): 93.3 ng/mL; concentration at 2 h (nasal, dog #3, 120 min): 108 ng/mL; AUC(0-t) at 2 h (nasal, individual dogs, read-out: AUC 0-120 min., Individual AUC (converted)): 568 ng·h/mL; bioavailability at 2 h (nasal): 110%; bioavailability at 2 h (oral): 30.2%; concentration at 1 min (iv, dog #1, 1 min): 1530 ng/mL; concentration at 0.05 h (iv, dog #1, 3 min): 927 ng/mL; concentration at 0.1 h (iv, dog #1, 6 min): 708 ng/mL; concentration at 0.2 h (iv, dog #1, 12 min): 482 ng/mL; concentration at 20 min (iv, dog #1, 20 min): 331 ng/mL; concentration at 35 min (iv, dog #1, 35 min): 296 ng/mL; concentration at 55 min (iv, dog #1, 55 min): 171 ng/mL; concentration at 80 min (iv, dog #1, 80 min): 134 ng/mL; concentration at 2 h (iv, dog #1, 120 min): 144 ng/mL; concentration at 1 min (iv, dog #2, 1 min): 1590 ng/mL; concentration at 0.05 h (iv, dog #2, 3 min): 952 ng/mL; concentration at 0.1 h (iv, dog #2, 6 min): 532 ng/mL; concentration at 0.2 h (iv, dog #2, 12 min): 349 ng/mL; concentration at 20 min (iv, dog #2, 20 min): 229 ng/mL; concentration at 35 min (iv, dog #2, 35 min): 166 ng/mL; concentration at 55 min (iv, dog #2, 55 min): 146 ng/mL; concentration at 80 min (iv, dog #2, 80 min): 165 ng/mL; concentration at 2 h (iv, dog #2, 120 min): 141 ng/mL; concentration at 1 min (iv, dog #3, 1 min): 1490 ng/mL; concentration at 0.05 h (iv, dog #3, 3 min): 907 ng/mL; concentration at 0.1 h (iv, dog #3, 6 min): 430 ng/mL; concentration at 0.2 h (iv, dog #3, 12 min): 322 ng/mL; concentration at 20 min (iv, dog #3, 20 min): 187 ng/mL; concentration at 35 min (iv, dog #3, 35 min): 102 ng/mL; concentration at 55 min (iv, dog #3, 55 min): 81.4 ng/mL; concentration at 80 min (iv, dog #3, 80 min): 46.2 ng/mL; concentration at 2 h (iv, dog #3, 120 min): 37.3 ng/mL; AUC(0-t) at 2 h (iv, intravenous, average of three dogs, read-out: AUC 0-120 min., Average ± S.E. (converted)): 431 ng·h/mL; AUC(0-t) at 2 h (iv, intravenous, individual dogs, read-out: AUC 0-120 min., Individual AUC (converted)): 537 ng·h/mL; concentration at 20 min (po, dog #1, 20 min): 7.5 ng/mL; concentration at 35 min (po, dog #1, 35 min): 43.4 ng/mL; concentration at 55 min (po, dog #1, 55 min): 73.6 ng/mL; concentration at 80 min (po, dog #1, 80 min): 80.1 ng/mL; concentration at 2 h (po, dog #1, 120 min): 74.7 ng/mL; concentration at 3 h (po, dog #1, 180 min): 63.3 ng/mL; concentration at 0.1 h (po, dog #2, 6 min): 18.5 ng/mL; concentration at 0.2 h (po, dog #2, 12 min): 40 ng/mL; concentration at 20 min (po, dog #2, 20 min): 62.9 ng/mL; concentration at 35 min (po, dog #2, 35 min): 94.4 ng/mL; concentration at 55 min (po, dog #2, 55 min): 92.3 ng/mL; concentration at 80 min (po, dog #2, 80 min): 86.8 ng/mL; concentration at 2 h (po, dog #2, 120 min): 86 ng/mL; concentration at 3 h (po, dog #2, 180 min): 85.7 ng/mL; concentration at 20 min (po, dog #3, 20 min): 18.4 ng/mL; concentration at 35 min (po, dog #3, 35 min): 47.6 ng/mL; concentration at 55 min (po, dog #3, 55 min): 65 ng/mL; concentration at 80 min (po, dog #3, 80 min): 95.5 ng/mL; concentration at 2 h (po, dog #3, 120 min): 91.5 ng/mL; concentration at 3 h (po, dog #3, 180 min): 53.4 ng/mL; AUC(0-t) at 2 h (po, oral, average of three dogs, read-out: AUC 0-120 min., Average ± S.E. (converted)): 130 ng·h/mL; AUC(0-t) at 2 h (po, oral, individual dogs, read-out: AUC 0-120 min., Individual AUC (converted)): 110 ng·h/mL; AUC 0-120 min., Individual AUC (intravenous, individual dogs): 27597.7 ng eq. ml-^1 min and 17668.5 ng eq. ml-^1 min; absorption after nasal administration vs standard oral route (nasal vs oral): more rapid and more complete absorption; blood level after nasal administration (nasal, 15 mg dose, about 5 minutes to about 2 hours, vs injected dose (FIG. 1)): blood levels comparable to an injected dose; AUC 0-120 min., Individual AUC (nasal, individual dogs): 30735.4 ng eq. ml-^1 min and 20139.0 ng eq. ml-^1 min; Plasma Concentration (oral, dog #1, 1 min): 0 ng eq./ml; Plasma Concentration (oral, dog #1, 3 min): 0 ng eq./ml; Plasma Concentration (oral, dog #1, 6 min): 0 ng eq./ml; Plasma Concentration (oral, dog #1, 12 min): 0 ng eq./ml; Plasma Concentration (oral, dog #2, 1 min): 0 ng eq./ml; Plasma Concentration (oral, dog #2, 3 min): 0 ng eq./ml; Plasma Concentration (oral, dog #3, 1 min): 0 ng eq./ml; Plasma Concentration (oral, dog #3, 3 min): 0 ng eq./ml; Plasma Concentration (oral, dog #3, 6 min): 0 ng eq./ml; Plasma Concentration (oral, dog #3, 12 min): 0 ng eq./ml; AUC 0-120 min., Individual AUC (oral, individual dogs): 9356.5 ng eq. ml-^1 min and 7441.6 ng eq. ml-^1 min; blood level after oral administration (oral, same dosage level (15 mg), FIG. 1): considerably lower blood levels
